Here are results for 3 compounds from ChEMBL document CHEMBL1144838, “Use of lantibiotic synthetases for the preparation of bioactive constrained peptides” (Bioorg Med Chem Lett, 2008).

Non-standard residues stand in square brackets, D forms with d. Residues, ends and D or L forms follow the SMILES beside them. Dha = C=C(N)C(=O)O

One experiment has as its target Tripeptidyl-peptidase 2 (Homo sapiens, UniProt P29144). Put plainly: Inhibition of human tripeptidyl peptidase2 from erythrocytes.
The species entered for experiment [1] is Mus musculus. Put plainly: Agonist activity at mouse delta opioid receptor in mouse model. It is filed as functional.
For experiment [2], the species on record is Mus musculus. Put plainly: Agonist activity at mu opioid receptor in mouse model. It is filed as functional.

As a reminder, the Ki is a dissociation constant, usually derived from enzyme kinetics or from competition with a known ligand. Lower therefore signals a stronger hold on the target.

Sequence of Tripeptidyl-peptidase 2 (P29144 whole entry): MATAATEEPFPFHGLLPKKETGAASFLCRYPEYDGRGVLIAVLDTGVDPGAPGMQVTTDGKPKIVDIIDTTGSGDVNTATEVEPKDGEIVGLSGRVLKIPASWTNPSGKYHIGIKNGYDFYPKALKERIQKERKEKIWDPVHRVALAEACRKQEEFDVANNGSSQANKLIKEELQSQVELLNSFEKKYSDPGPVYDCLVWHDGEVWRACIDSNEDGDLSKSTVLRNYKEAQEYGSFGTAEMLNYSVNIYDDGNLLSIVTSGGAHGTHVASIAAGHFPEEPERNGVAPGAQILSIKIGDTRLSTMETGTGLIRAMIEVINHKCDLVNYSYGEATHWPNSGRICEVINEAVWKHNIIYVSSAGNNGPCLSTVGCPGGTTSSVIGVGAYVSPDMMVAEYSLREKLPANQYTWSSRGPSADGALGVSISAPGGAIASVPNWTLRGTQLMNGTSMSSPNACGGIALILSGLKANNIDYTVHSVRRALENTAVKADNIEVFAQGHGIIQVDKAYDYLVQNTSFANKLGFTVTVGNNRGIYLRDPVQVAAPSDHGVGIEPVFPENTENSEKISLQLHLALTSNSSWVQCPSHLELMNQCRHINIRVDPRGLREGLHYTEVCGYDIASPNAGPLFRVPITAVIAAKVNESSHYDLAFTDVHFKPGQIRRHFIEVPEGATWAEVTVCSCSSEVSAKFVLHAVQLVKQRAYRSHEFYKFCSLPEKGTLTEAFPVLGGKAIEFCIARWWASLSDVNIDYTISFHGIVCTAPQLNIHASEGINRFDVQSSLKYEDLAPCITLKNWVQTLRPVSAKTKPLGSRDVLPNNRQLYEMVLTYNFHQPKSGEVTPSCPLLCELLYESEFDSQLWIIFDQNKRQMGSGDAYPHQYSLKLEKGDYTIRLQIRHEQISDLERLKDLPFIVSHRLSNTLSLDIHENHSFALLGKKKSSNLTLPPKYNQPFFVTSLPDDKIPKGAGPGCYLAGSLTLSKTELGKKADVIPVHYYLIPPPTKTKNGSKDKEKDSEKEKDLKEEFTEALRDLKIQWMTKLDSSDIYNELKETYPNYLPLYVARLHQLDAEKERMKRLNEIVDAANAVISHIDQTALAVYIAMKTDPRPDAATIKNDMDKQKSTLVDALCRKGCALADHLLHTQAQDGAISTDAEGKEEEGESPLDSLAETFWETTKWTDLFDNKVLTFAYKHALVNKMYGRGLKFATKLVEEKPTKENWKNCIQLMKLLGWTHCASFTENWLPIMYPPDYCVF

In turn, `C=C(NC(=O)[C@H](C)NC(=O)[C@@H](N)CCCNC(=N)N)C(=O)N[C@H](C(=O)N[C@@H](C)C(=O)O)C(C)C` (H-RA[Dha]VA-OH) returned a Ki at Tripeptidyl-peptidase 2 of 20 nM. That is a double-digit nanomolar value.
On to `N[C@@H](Cc1ccc(O)cc1)C(=O)N[C@@H]1CSC[C@@H](C(=O)O)NC(=O)[C@H](Cc2ccccc2)NC(=O)CNC1=O`, for which the ED50 in the experiment filed under Mus musculus [1] and in the experiment listed under Mus musculus [2] was 0.0018 nM throughout.
Regarding `CN1CC[C@]23c4c5ccc(O)c4O[C@H]2[C@@H](O)C=C[C@H]3[C@H]1C5` [MORPHINE], the ED50 in the experiment filed under Mus musculus [1] and in the experiment filed under Mus musculus [2] was 15 nM in each case.
